Assay results from patent US11999683B2, “Lipocationic dendrimers and uses thereof” (priority 2015, dated 2024).

Assays:
[1] = In vivo toxicity evaluation (body weight) in wild type mice; details: i.v., 4 mg siCTR/kg (100 mg dendrimer/kg or 28 mg C12-200/kg)
Method: (§1) Wild-type mice or transgenic mice bearing liver tumors were randomly divided into different groups. Mice received tail vein i.v. injections of dendrimer NPs containing siCTR. Their body weight was monitored daily. For transgenic mice bearing liver tumors, multiple tail vain injections were performed to simulate repeated dosing.
To identify degradable dendrimers with the required balance of low toxicity and high potency required for liver cancer treatment, the degradable dendrimers were chose to evaluate their in vivo toxicity. In parallel, we analyzed C12-200 lipidoid LNPs wee chose as the best example of a non-hydrolyzable system previously shown to be potent in mice and non-human primates (Love et al., 2010). Lipidoids, as a class, are benchmark materials at the forefront of clinical research (Kanasty et al., 2013; Love et al., 2010; Sahay et al., 2013). Non-immunogenic control siRNA was used to best evaluate the toxicity of the individual dendrimers themselves. Dendrimer NPs were formulated at a weight ratio of 25:1 (dendrimer:siCTR), higher than necessary to better probe toxicity. C12-200 LNPs were prepared using identical formulation parameters as previously reported (Love et al., 2010). Size and zeta potential of each NP in PBS buffer was characterized. […] Each formulated NP was injected i.v. into wild type mice at a 4 mg siCTR/kg dose (100 mg dendrimer/kg or 28 mg C12-200/kg). […]

[2] = Biodistribution of Cy5.5-labeled siRNA in liver tumor-bearing mice; assay type: in vivo; details: Cy5.5-labeled siRNA 1 mg/kg i.v., 24 hours post-injection
Method: Female C57BL/6 mice or transgenic mice bearing liver tumors received tail vein i.v. injections with dendrimer NPs containing Cy5.5-siRNA at 1 mg/kg of siRNA in 200 μL. At 24 h post injection, mice were euthanized and organs were removed. The biodistribution was assessed by imaging whole organs with an IVIS Lumina System (Caliper Life Sciences) with the Cy5.5 filter setting.
For confocal imaging, the tissue was cryo-sectioned ([…]) and fixed using 4% paraformaldehyde at room temperature for 10 min. The slides were washed three times with PBS and blocked for 30 min in PBS with 1% albumin. Sections were then incubated for 30 min with Alexa Fluor 488 Phalloidin (1:200 dilution, Life Technologies) in PBS with 1% albumin. Slides were washed three times with 0.1% Tween 20 and mounted using ProLong Gold Antifade (Life Technologies). Sections were imaged using an LSM 700 point scanning confocal microscope (Zeiss) equipped with a 25× objective.
Since 5A2-SC8 balances low in vivo toxicity and effectiveness for silencing the hepatocellular target FVII, first, whether 5A2-SC8 NPs could deliver siRNA into tumor cells was examined. At the age of 41 days (p41), the livers of these transgenic mice are full of tumors (FIG. 14A). On p40, mice were injected intravenously with 5A2-SC8 NPs with Cy5.5-labeled siRNA at a dosage of 1 mg siRNA/kg. […]

[3] = In vivo toxicity evaluation in transgenic mice bearing MYC-driven liver tumors; details: for survival after multiple injections of siCTR NPs: tumor-bearing mice, injected days 32, 36, 40, 44 at 3 mg siCTR/kg (75 mg dendrimer/kg)
Method: All experiments were approved by the Institutional Animal Care and Use Committees of The University of Texas Southwestern Medical Center and were consistent with local, state and federal regulations as applicable. Female C57BL/6 mice were purchased from Harlan Laboratories (Indianapolis, IN). Transgenic mice bearing MYC-driven liver tumors were generated by crossing the TRE-MYC strain with LAP-tTA strain. Mice bearing the LAP-tTA and TRE-MYC genotype were maintained on 1 mg/mL of dox, and MYC was induced by withdrawing dox. Power analysis was performed to anticipate required number of animals to achieve statistical significance.
as §1
A well-established Tet-On MYC inducible transgenic liver cancer model ws chosen (FIG. 13A) (Nguyen et al., 2014). […] At the age of 32 days (p32), these sick transgenic mice bearing aggressive liver tumors were injected with 5A2-SC8 or 6A3-SC12 NPs at 3 mg siCTR/kg dosage (75 mg dendrimer/kg or 21 mg C12-200/kg). […] In contrast to the result in WT mice, injection of C12-200 LNPs to mice bearing aggressive tumors lost >20% weight after one day, despite receiving ˜3 times less lipid than 5A2-SC8 injected mice (FIG. 12D). […] In addition to being less toxic than benchmark compounds, 5A2-SC8 NPs are more efficacious because these dendrimers reduce clinical concern for dose limiting toxicity and enable a wider therapeutic window.

Factor VII = experiment: In vivo Factor VII silencing in mice; details: 1 mg siFVII/kg
Method: For in vivo delivery screening, female C57BL/6 mice received tail vein i.v. injections of PBS (negative control, n=3) or dendrimer NPs containing non-targeting siRNA (siCTR, negative control, n=3) or dendrimer NPs containing anti-Factor VII siRNA (siFVII, n=3) diluted in PBS (200 μL or less in total volume). After 48 h, body-weight gain/loss was measured and mice were anaesthetized by isofluorane inhalation for blood sample collection by retro-orbital eye bleed. Serum was isolated with serum separation tubes (Becton Dickinson) and Factor VII protein levels were analyzed by a chromogenic assay (Biophen FVII, Aniara Corporation). A standard curve was constructed using samples from PBS-injected mice and relative Factor VII expression was determined by comparing treated groups to an untreated PBS control.
Having identified dendrimers that can overcome intracellular barriers, next, the dendrimers that can overcome extracellular barriers to efficiently deliver siRNA in vivo were identified. […] Dendrimers were evaluated for their ability to silence Factor VII in hepatocytes because this blood clotting factor can be readily quantified from a small serum sample (Akinc et al., 2008; Semple et al., 2010). […] FVII activity was quantified 3 days post injection.

[4] = tumor-bearing mice p32, 3 mg siCTR/kg (75 mg dendrimer/kg)

| SMILES | body weight change [1] | siRNA accumulation in organs (fluorescence imaging) [2] | tolerance in tumor-bearing mice ([3]; LAP-tTA/TRE-MYC transgenic, mouse, in vivo) | body weight loss ([3]; tumor-bearing mice p32, 3 mg siCTR/kg (75 mg dendrimer/kg or 21 mg C12-200/kg), after one day) | body weight recovery [3, 4] | survival after multiple injections of siCTR NPs [3] | in vivo FVII knockdown (Factor VII) [%] | body weight loss ([3]; tumor-bearing mice p32, 3 mg siCTR/kg (75 mg dendrimer/kg), by the third day) [%] |
| --- | --- | --- | --- | --- | --- | --- | --- | --- |
| CCCCCCCCSCC(C)C(=O)OCCOC(=O)CCN(CCNCCN(CCC(=O)OCCOC(=O)C(C)CSCCCCCCCC)CCC(=O)OCCOC(=O)C(C)CSCCCCCCCC)CCNCCN(CCC(=O)OCCOC(=O)C(C)CSCCCCCCCC)CCC(=O)OCCOC(=O)C(C)CSCCCCCCCC (centres unmarked) [5A2-SC8] | quicker recovery and gained weight normally after the first day | siRNA accumulation in the cancerous liver, with only minor accumulation in the spleen and kidneys | up to 75 mg/kg | about 5% | quickly returned to their starting weight on the second day | well tolerated and not affect survival | > 95 |  |
| CCCCCCCCCCCCSCC(C)C(=O)OCCOC(=O)CCN(CCC(=O)OCCOC(=O)C(C)CSCCCCCCCCCCCC)CCN(CCN(CCC(=O)OCCOC(=O)C(C)CSCCCCCCCCCCCC)CCC(=O)OCCOC(=O)C(C)CSCCCCCCCCCCCC)CCN(CCC(=O)OCCOC(=O)C(C)CSCCCCCCCCCCCC)CCC(=O)OCCOC(=O)C(C)CSCCCCCCCCCCCC (centres unmarked) [6A3-SC12] | quicker recovery and gained weight normally after the first day |  |  |  | could not recover | died seven days earlier compared to mice that received no treatment |  | 10 |
